Laboratory results from US20220259556A1, “METHOD FOR OBTAINING IMMUNO-SUPPRESSIVE DENDRITIC CELLS” (Transimmune AG, priority 2013, published 2022).
“Also recorded” adds a separate entry of the source. Ends that are not written are not given here.

How the values were obtained:
lymphocytes = experiment: Apoptosis of lymphocytes (Annexin-V/7-AAD); type: cell-based, human; conditions: 1 J/cm^2 and 100 ng/mL
Description: (§1) Lymphocytes were treated with 8-MOP (100 ng/mL) and UVA (1 J/cm^2), washed with PBS, and co-cultured in complete media at 37° C. and 5% CO2 with either PUVA-treated or untreated-MoDC in a ratio of 5 or 10 lymphocytes to 1 MoDC. MoDC treated for 24 hr with 100 nM dexamethasone (Sigma) served as the positive control group. After 24 hr, cells were harvested and MoDC were re-purified. […] CD11c^+ MoDC were re-plated at 0.5-1.0×10^6 cells/mL in complete media and stimulated with 100 ng/mL LPS (Sigma). 24 hr after LPS stimulation, cells were harvested for RNA isolation and immunophenotyping, and supernatants were collected for cytokine quantification.
Monoclonal antibodies included HLA-DR, CD80, CD83, CD3, CD86, CD14, CD11c and GILZ. Antibodies were obtained from Beckman-Coulter and eBioscience and were used at their pre-determined optimal dilutions. Apoptosis was assessed using the Annexin-V Apoptosis Detection Kit (eBioscience), with Annexin-V recognizing phosphatidylserine (PS) on the surface of apoptotic cells. 7-AAD substituted for PI as the cell viability dye. […] Background staining was established with appropriate isotype and fluorescence minus one controls. Immunofluorescence was analyzed using a FACSCalibur L (BD Biosciences) within 2 hr of fixation with 2% paraformaldehyde. […]

GILZ = GILZ expression in plate-passed PBMC treated with 8-MOP and UVA; type: cell-based; conditions: monocytes physically activated by passage through device, then 8-MOP and UVA
Description: Monocytes were passed through a device derived from the Therakos system. The dimensions of the flow chamber were 30 mm width, 1600 mm length, and 1 mm height. In brief, a blood sample was spun at low speed through a Ficoll gradient to obtain e.g. 80 ml of sample with a concentration of peripheral blood mononuclear cells (PBMC) of e.g. 1.5*10^6 cells/ml. The chamber was pre-coated with platelets. The sample was passed through the chamber for 60 min at a flow rate of about 24 ml/min corresponding to a shear stress of about 0.13 Pa. The collected activated monocytes were spun at low speed and resuspended in a small volume of medium comprising 8-MOP and irradiated with […], incubated for a day and used for further analysis (Day 1PBMC+PP). As a control PBMCs were not passed through the device and incubated for a day (Day 1 PBMC). Further, PBMC were analyzed directly after harvest through a Ficoll gradient (Day0 PBMC). Day 1 PBMC+PP were then further treated with 8-MOP and UVA (PUVA). The cells and controls were then analyzed for expression of GILZ.

MoDC = experiment: Immunophenotyping of MoDC (HLA-DR, CD80, CD83, CD86, intracellular GILZ); type: cell-based, human; conditions: product of 8-MOP and UVA exceeded 100; 24 hr after PUVA
Description: as §1
Monoclonal antibodies included HLA-DR, CD80, CD83, CD3, CD86, CD14, CD11c and GILZ. Antibodies were obtained from Beckman-Coulter and eBioscience and were used at their pre-determined optimal dilutions. Apoptosis was assessed using the Annexin-V Apoptosis Detection Kit (eBioscience), with Annexin-V recognizing phosphatidylserine (PS) on the surface of apoptotic cells. 7-AAD substituted for PI as the cell viability dye. Cells displaying an Annexin-V^+/7-AAD^− phenotype were classified as early apoptotic cells, and cells displaying an Annexin-V^+/7-AAD^+ phenotype were classified as late apoptotic cells. Dual membrane and intracytoplasmic staining was performed using the IntraPrep fix and permeabilization kit (Beckman-Coulter). Background staining was established with appropriate isotype and fluorescence minus one controls. Immunofluorescence was analyzed using a FACSCalibur L (BD Biosciences) within 2 hr of fixation with 2% paraformaldehyde. A minimum of 10,000 events were collected for each group.

platelets = experiment: Platelet adhesion studies in Vena8 flow chamber; type: cell-based, human
Description: For experiments not involving the collection and phenotyping of cells post-flow, Vena8 biochips (Cellix Ltd, Dublin, Ireland) were used to generate laminar flow. The volumetric flow path for a channel of the Vena8 biochips measured 20000×400×100 microns (length×width×height). Protein coating of these chips is described in the appropriate section below.
Platelet adhesion experiments were performed using the Vena8 flow chamber described above. Fibrinogen and fibronectin (Sigma) were dissolved in PBS to a final concentration of 200 mcg/ml. Channels of the Vena8 chips were incubated at room temperature in a humidified chamber for 2 hours with the protein solution, autologous plasma, or PBS alone. The channels were washed with 5× the volume RPMI. Platelet-rich-plasma was then perfused through the protein-coated channel at the indicated shear-stress, held constant. For each channel, still images were acquired exactly 90 seconds into the experiment at 4 pre-defined low power fields located along the flow path (fields were centered at 2500, 7500, 12500, and 17500 microns from the start point of infusion).
Some experiments involved pre-treating platelet-rich-plasma with protein fragments prior to infusion through the channels. Small RGD peptides, containing the amino-acid sequence Arg-Gly-Asp-Ser; DRG peptides, contain the amino-acid sequence Ser-Asp-Gly-Arg; or fragment 400-411 of fibrinogen, containing the amino-acid sequence His-His-Leu-Gly-Gly-Ala-Lys-Gln-Ala-Gly-Asp-Val, were incubated at a concentration of 2 mM with PRP for 20 minutes at room temperature. The PRP was then perfused through the channels as previously described.

monocytes = experiment: Static co-cultures of platelets with monocytes; type: cell-based, human; conditions: static conditions, 18 hours
Description: Experiments involving co-cultures of monocytes with additional platelets were performed as described in the Overnight Culture section, with a few necessary modifications. Following Ficoll-Hypaque separation, mononuclear cells were resuspended in 30% AB serum/RMPI to a final concentration of 10×10^6 cells/ml, of which 1 ml was allocated to each well of a 16-well plate. An additional 1 ml of platelets (suspended in RPMI, at 2× the desired final concentration) or RPMI without platelets was then added to each well. To activate platelets, 500 μl containing 2 units of thrombin was added to half the wells, and 500 μl of RPMI was added to the others to balance the volume. Cells were then incubated as described previously.

COc1c2occc2cc2ccc(=O)oc12 [8-MOP, 8-methoxypsoralen]
Time to Annexin-V display by lymphocytes (lymphocytes): 2 h
GILZ expression / differentiation of activated monocytes (GILZ): can be channeled into immuno-suppressive dendritic cells; also recorded: increase of expression of GILZ
Reduction of CD80 cell surface expression (MoDC): 30%
Reduction of CD83 cell surface expression (MoDC): 31%
Reduction of CD86 cell surface expression (MoDC): 54%

Arg-Gly-Asp-Ser (RGDS; printed: Arg-Gly-Asp-Ser) [RGD peptides, Small RGD peptides]
Platelet adhesion to fibronectin-coated plates (platelets; platelets (PRP) pre-incubated with 2 mM peptide for 20 minutes, flow): decreased

HHLGGAKQAGDV [fragment 400-411 of fibrinogen]
Platelet adhesion to fibrinogen-coated plates (platelets; platelets (PRP) pre-incubated with 2 mM peptide for 20 minutes, flow, listed as gamma fragments): decreased

fibrinogen
Platelet adhesion to plates pre-coated with the protein (platelets; unactivated platelets in flow, wall shear stress 0.2 to 6.0 dyne/cm^2): highest concentrations of platelets adhered

thrombin
Monocyte differentiation versus cultures with platelets not activated by thrombin (monocytes): did not cause a discernible difference
